38 compounds from patent publication US9556202B2, “Sulfonamide derivatives and methods of use thereof for improving the pharmacokinetics of a drug” (MERCK SHARP & DOHME CORP., priority 2012, dated 2017) can be followed below.

Some results are limits rather than exact numbers.

The assay addresses T1, CYP3A4 (Homo sapiens, UniProt P08684).
T1 construct: 0.01 mg/mL protein human liver microsomes (BD Gentest); tissue BD Gentest; host or cells: human liver microsomes
In words: IC50 vs CYP3A by inhibition of lopinavir metabolism in human liver microsomes. Particulars: human liver microsomes 0.01 mg/mL, 1.5 μM lopinavir, 8 min 37° C.; test conc. e.g. 0.098-100 nM; unit inferred; read-out: 3A4(LPV). The assay is classed as biochemical. On the procedure: Determination of IC50 Vs CYP3A by Measurement of Inhibition of Lopinavir Metabolism
This assay was performed in a standard 96-well plate design. IC50 values were calculated from the percent inhibition observed for each test compound at 6 concentrations (for example, 0.098, 0.391, 1.56, 6.25, 25 and 100 nM). The incubation substrate mix contains 1.5 μM lopinavir, 0.01 mg/mL protein human liver microsomes (BD Gentest), 1 mM NAPDH, 3.3 mM MgCl2 and 100 mM potassium phosphate buffer (pH 7.4). The production of the sum of three hydroxylated metabolites (M2: 6-hydroxy lopinavir, M3: 4-hydroxy lopinavir, M4: 4-hydroxy lopinavir (epimer of M3), Kumar et al., 1999) was determined after incubation for 8 min at 37° C. Quantitation of the metabolite peak area ratio against an internal standard (tolbutamide) was determined by LC/MS/MS analysis following acetonitrile treatment of the incubations.
Samples were analyzed in the MRM mode with a SCIEX API-4000 mass spectrometer (Applied Biosystems, Foster City, Calif.), with a Shimadzu LC-20 AD pump (Shimadzu corporation, Kyoto, JP) and a CTC PAL autosampler (Agilent Technologies, Switzerland). A Phenomenex, Luna, 5 μm, 100 A, 2.00×30 mm HPLC column was used for the separation. The mobile phases were: (A) 0.1% formic acid in water and (B) 0.1% formic acid in acetonitrile. The binary gradient was as follows.
The peak area ratio of the analyte to the internal standard was used to quantify the metabolite. The values of peak area ratios in the presence of test compound were compared to those of maximum or minimum controls and were expressed as % inhibition by interpolating between the maximum and minimum peak area ratios. Incubations with no inhibitor were defined as the maxima and with 5 μM ketoconazole were defined as the minima.
The following equation was used to calculate the % inhibition: [1−[(X−Low control)/(High control−Low control)]]*100
For the IC50 calculation, SigmaPlot was used to plot the mean % inhibition versus the test compound concentrations and for non-linear regression analysis of the data. Depending on the range of data points defining the inhibition curve, the data may have been fit to the 4-parameter logistic equation.

T1 sequence (P08684 2-503): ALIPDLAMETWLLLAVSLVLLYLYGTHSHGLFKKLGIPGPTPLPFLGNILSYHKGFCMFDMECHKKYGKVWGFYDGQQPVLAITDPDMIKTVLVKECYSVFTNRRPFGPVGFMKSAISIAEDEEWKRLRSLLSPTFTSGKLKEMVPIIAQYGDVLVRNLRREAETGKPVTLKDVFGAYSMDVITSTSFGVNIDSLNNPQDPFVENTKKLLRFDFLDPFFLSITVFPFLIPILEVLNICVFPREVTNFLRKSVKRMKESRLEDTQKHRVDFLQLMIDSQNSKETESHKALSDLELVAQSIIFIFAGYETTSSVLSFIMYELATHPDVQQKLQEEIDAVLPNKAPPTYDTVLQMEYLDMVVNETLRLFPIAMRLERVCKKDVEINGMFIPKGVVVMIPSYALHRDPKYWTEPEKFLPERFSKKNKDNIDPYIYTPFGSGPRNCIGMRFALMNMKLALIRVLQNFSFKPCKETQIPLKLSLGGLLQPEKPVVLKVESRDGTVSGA

Consider `C[C@H](c1ccc(F)cc1)n1cncc1C1CC12CCN(S(=O)(=O)c1cnc(N3CCN(C)CC3)s1)CC2` (single isomer, unassigned) [Compound 43a], for which the IC50 came out at 6 nM. For `C[C@H](c1ccc(F)cc1)n1cncc1C1CC12CCN(S(=O)(=O)c1cnc(N3CCN(C)CC3)s1)CC2` (single isomer, unassigned) [Compound 43b], the IC50 turned out to be 2 nM. The result for `C[C@H](c1ccc(F)cc1)n1cncc1CN1CCN(S(=O)(=O)c2cnc(N3CCNCC3)s2)CC1` [Compound 1] reads 1.4 nM; that for `C[C@H](c1ccc(F)cc1)n1cncc1CN1CCN(S(=O)(=O)c2cnc(N3CCN(C)CC3)s2)CC1` [Compound 2], 1 nM. `C[C@H](c1ccc(F)cc1)n1cncc1CN1CCN(S(=O)(=O)c2cnc(N3CCC4(CC3)CNC(=O)N4)s2)CC1` [Compound 3]: the IC50 stood at 2.7 nM.

As to `C[C@H](c1ccc(C#N)cc1)n1cncc1CN1CCN(S(=O)(=O)c2cnc(Nc3ccc(C(F)(F)F)cn3)s2)CC1` [Compound 4], the IC50 was less than 0.1 nM. With `C[C@H](c1ccc(F)cc1)n1cncc1CN1CCN(S(=O)(=O)c2cnc(N3CCN4C[C@H](O)C[C@H]4C3)s2)CC1` [Compound 5] the figure was 3.8 nM; with `C[C@H](c1ccc(F)cc1)n1cncc1CN1CCN(S(=O)(=O)c2cnc(N3CCN4C[C@H](O)C[C@@H]4C3)s2)CC1` [Compound 6], 1.4 nM; with `C[C@H](c1ccc(F)cc1)n1cncc1CN1CCN(S(=O)(=O)c2cnc(N3CCC(S(C)(=O)=O)C3)s2)CC1` (some centres unmarked) [Compound 8], 1.8 nM.

For `C[C@H](c1ccc(F)cc1)n1cncc1CN1CCN(S(=O)(=O)c2cnc(N3CCN(C4CCN(C)CC4)CC3)s2)CC1` [Compound 9], the IC50 amounted to 2.8 nM. On to `C[C@H](c1ccc(F)cc1)n1cncc1CN1CCN(S(=O)(=O)c2cnc(N3CC[C@@H](N)[C@H](F)C3)s2)CC1` [Compound 12], for which the IC50 came to 1 nM. The result for `C[C@H](c1ccc(F)cc1)n1cncc1CN1CCN(S(=O)(=O)c2cnc(N3CC[C@@H]4OCCN[C@H]4C3)s2)CC1` [Compound 13] reads 1.4 nM. The result for `C[C@H](c1ccc(F)cc1)n1cncc1CN1CCN(S(=O)(=O)c2cnc(N3CC[C@@H]4NCCO[C@H]4C3)s2)CC1` [Compound 15] reads 1.2 nM.

Regarding `C[C@H](c1ccc(F)cc1)n1cncc1CN1CCN(S(=O)(=O)c2cnc(N3CC(=O)N4C[C@H](O)C[C@H]4C3)s2)CC1` [Compound 16], the IC50 came out at 5.2 nM.

As to `C[C@H](c1ccc(F)cc1)n1cncc1CN1CCN(S(=O)(=O)c2cnc(NCC(F)CN)s2)CC1` (some centres unmarked) [Compound 17], the IC50 came to 1.7 nM. With `C[C@H](c1ccc(F)cc1)n1cncc1CN1CCN(S(=O)(=O)c2cnc(N3CCN4C[C@H](O)C[C@H]4C3=O)s2)CC1` [Compound 18] the figure was 1.1 nM; with `C[C@H](c1ccc(F)cc1)n1cncc1CN1CCN(S(=O)(=O)c2cnc(N3CCN4C[C@H](O)CC[C@H]4C3)s2)CC1` [Compound 19], 1.7 nM. With `C[C@H](c1ccc(F)cc1)n1cncc1CN1CCN(S(=O)(=O)c2cnc(N3CC[C@@H](N4CCOCC4)[C@H](F)C3)s2)CC1` [Compound 20] the figure was 4.1 nM; with `C[C@H](c1ccc(F)cc1)n1cncc1CN1CCN(S(=O)(=O)c2cnc(N3C[C@@H]4C[C@@H](O)CN4C[C@@H]3C)s2)CC1` [Compound 21], 1.9 nM; with `CC1CN(c2ncc(S(=O)(=O)N3CCN(Cc4cncn4[C@H](C)c4ccc(F)cc4)CC3)s2)C[C@@H]2C[C@@H](O)CN12` (some centres unmarked) [Compound 23], 1.6 nM. With `C[C@H](c1ccc(F)cc1)n1cncc1CN1CCN(S(=O)(=O)c2cnc(N3CCN4C[C@H](O)CC4(C)C3)s2)CC1` (some centres unmarked) [Compound 24] the figure was 1.9 nM; with `C[C@H](c1ccc(F)cc1)n1cncc1CN1CCN(S(=O)(=O)c2cnc(N3CCC(N)(CO)CC3)s2)CC1` [Compound 25], 1.9 nM; with `C[C@H](c1ccc(F)cc1)n1cncc1CN1CCN(S(=O)(=O)c2cnc(N3CCN4C(=O)OC[C@H]4C3)s2)CC1` [Compound 26], 1.5 nM. Consider `C[C@H](c1ccc(F)cc1)n1cncc1CN1CCN(S(=O)(=O)c2cnc(N3CCN4CCC(O)[C@H]4C3)s2)CC1` (some centres unmarked) [Compound 27], for which the IC50 was 2.6 nM. The result for `C[C@H](c1ccc(F)cc1)n1cncc1CN1CCN(S(=O)(=O)c2ccc(N3CCNCC3)cn2)CC1` [Compound 28] reads 4.4 nM.

Turning to `C[C@H](c1ccc(F)cc1)n1cncc1CN1CCN(S(=O)(=O)c2cncc(N3CCNCC3)c2)CC1` [Compound 29], the IC50 was 2.9 nM.

In the case of `C[C@H](c1ccc(F)cc1)n1cncc1CN1CCN(S(=O)(=O)c2cnc(N3CCNCC3)cn2)CC1` [Compound 30], the IC50 is 3.6 nM.

`Cc1ccc(C2(n3cncc3CN3CCN(S(=O)(=O)c4cnc(N5CCN(C)CC5)s4)CC3)CC2)nc1` [Compound 31]: the IC50 amounted to 4.4 nM.

Take `CN1CCN(c2ncc(S(=O)(=O)N3CCN(Cc4cncn4CCOc4ccc(Cl)cc4)CC3)s2)CC1` [Compound 32]: the IC50 came to 1.2 nM. With `CN1CCN(c2ncc(S(=O)(=O)N3CCN(Cc4cncn4CCOc4ccc(F)cn4)CC3)s2)CC1` [Compound 33] the figure was 2.3 nM. With `CC(c1cncn1[C@H](C)c1ccc(F)cc1)N1CCN(S(=O)(=O)c2cnc(N3CCN4C[C@H](O)C[C@H]4C3)s2)CC1` (some centres unmarked) [Compound 37] the figure was 4.1 nM; with `C[C@H](c1ccc(F)cc1)n1cncc1C1C(=O)OCC2CN(S(=O)(=O)c3cnc(Nc4ccc(C(F)(F)F)cn4)s3)CCN21` (some centres unmarked) [Compound 39], 8 nM. With `C[C@H](c1ccc(F)cc1)n1cncc1C1COCC2CN(S(=O)(=O)c3cnc(Nc4ccccn4)s3)CCN21` (some centres unmarked) [Compound 40] the figure was 0.8 nM; with `C[C@H](c1ccc(F)cc1)n1cncc1C1CN(C)CC2CN(S(=O)(=O)c3cnc(Nc4ccccn4)s3)CCN21` (some centres unmarked) [Compound 41], 2.1 nM. On to `C[C@H](c1ccc(F)cc1)n1cnnc1CN1CCN(S(=O)(=O)c2cnc(N3CCN4C[C@H](O)C[C@H]4C3)s2)CC1` [Compound 42], for which the IC50 was found to be 32 nM. With `C[C@H](c1ccc(F)cc1)n1cncc1CC1CCN(S(=O)(=O)c2cnc(N3CCN(C)CC3)s2)CC1` [Compound 44] the figure was 1.1 nM. Consider `C[C@H](c1ccc(F)cc1)n1cncc1CC1(CO)CCN(S(=O)(=O)c2cnc(N3CCN(C)CC3)s2)CC1` [Compound 47], for which the IC50 was 13 nM. On to `C[C@H](c1ccc(F)cc1)n1cncc1CC1(C#N)CCN(S(=O)(=O)c2cnc(N3CCN(C)CC3)s2)CC1` [Compound 48], for which the IC50 worked out at 9.4 nM.
